Values after ≈ are worked out from the molar mass of the structure shown.
What was measured:
Assay type in all cases: functional
Conditions in all cases: time 16-18 hrs
Staphylococcus aureus [1] = test: Antibacterial activity against methicillin-susceptible Staphylococcus aureus ATCC 13709 after 16 to 18 hrs by broth microdilution method
Klebsiella pneumoniae = test: Antibacterial activity against Klebsiella pneumoniae CICC 21611 after 16 to 18 hrs by broth microdilution method
Staphylococcus aureus [2] = test: Antibacterial activity against methicillin-susceptible Staphylococcus aureus ATCC 25923 after 16 to 18 hrs by broth microdilution method
[3] = tested on: Staphylococcus epidermidis; test: Antibacterial activity against Staphylococcus epidermidis after 16 to 18 hrs by broth microdilution method
Staphylococcus aureus [4] = test: Antibacterial activity against methicillin-resistant Staphylococcus aureus ATCC 33591 after 16 to 18 hrs by broth microdilution method
Staphylococcus aureus [5] = test: Antibacterial activity against methicillin-resistant Staphylococcus aureus Bio-090770 after 16 to 18 hrs by broth microdilution method
Staphylococcus aureus [6] = test: Antibacterial activity against methicillin-susceptible Staphylococcus aureus ATCC 29213 after 16 to 18 hrs by broth microdilution method
Escherichia coli = test: Antibacterial activity against Escherichia coli ATCC 25922 after 16 to 18 hrs by broth microdilution method
Acinetobacter baumannii [7] = test: Antibacterial activity against Acinetobacter baumannii Bio 34235 after 16 to 18 hrs by broth microdilution method
Acinetobacter baumannii [8] = test: Antibacterial activity against drug-resistant Acinetobacter baumannii Bio 53272 after 16 to 18 hrs by broth microdilution method
Staphylococcus aureus [9] = test: Antibacterial activity against methicillin-resistant Staphylococcus aureus ATCC 43300 after 16 to 18 hrs by broth microdilution method

Row | SMILES | MIC (Staphylococcus aureus [1]) | MIC (Klebsiella pneumoniae) | MIC (Staphylococcus aureus [2]) | MIC [3] | MIC (Staphylococcus aureus [4]) | MIC (Staphylococcus aureus [5]) | MIC (Staphylococcus aureus [6]) | MIC (Escherichia coli) | MIC (Acinetobacter baumannii [7]) | MIC (Acinetobacter baumannii [8]) | MIC (Staphylococcus aureus [9])
1 | CCCC[C@H](CN(O)C=O)C(=O)N1CCC[C@H]1c1nnc(-c2ccc(Br)s2)s1 | 2 µg/mL (≈ 4.1 µM) | 32 µg/mL (≈ 65.6 µM) | 1 µg/mL (≈ 2.05 µM) | 1 µg/mL (≈ 2.05 µM) | 0.25 µg/mL (≈ 0.513 µM) | 2 µg/mL (≈ 4.1 µM) | 2 µg/mL (≈ 4.1 µM) | 64 µg/mL (≈ 131 µM) | 32 µg/mL (≈ 65.6 µM) | 16 µg/mL (≈ 32.8 µM) | 0.25 µg/mL (≈ 0.513 µM)
2 | CCCC[C@H](CN(O)C=O)C(=O)N1CCC[C@H]1c1nnc(-c2ccccn2)s1 | 0.5 µg/mL (≈ 1.24 µM) | 32 µg/mL (≈ 79.3 µM) | 0.5 µg/mL (≈ 1.24 µM) | 0.5 µg/mL (≈ 1.24 µM) | 0.5 µg/mL (≈ 1.24 µM) | 1 µg/mL (≈ 2.48 µM) | 1 µg/mL (≈ 2.48 µM) | 128 µg/mL (≈ 317 µM) | 32 µg/mL (≈ 79.3 µM) | 16 µg/mL (≈ 39.7 µM) | 0.5 µg/mL (≈ 1.24 µM)
3 | CN[C@H](CC(C)C)C(=O)N[C@H]1C(=O)N[C@@H](CC(N)=O)C(=O)N[C@H]2C(=O)N[C@H]3C(=O)N[C@H](C(=O)N[C@H](C(=O)O)c4cc(O)cc(O)c4-c4cc3ccc4O)[C@H](O)c3ccc(c(Cl)c3)Oc3cc2cc(c3O[C@@H]2O[C@H](CO)[C@@H](O)[C@H](O)[C@H]2O[C@H]2C[C@](C)(N)[C@H](O)[C@H](C)O2)Oc2ccc(cc2Cl)[C@H]1O [VANCOMYCIN] |  | 16 µg/mL (≈ 11 µM) |  | 16 µg/mL (≈ 11 µM) |  |  |  | 16 µg/mL (≈ 11 µM) | 16 µg/mL (≈ 11 µM) | 16 µg/mL (≈ 11 µM) | 0.25 µg/mL (≈ 0.173 µM)
4 | CCCC[C@H](CN(O)C=O)C(=O)N1CCC[C@H]1c1nnc(C)s1 | 4 µg/mL (≈ 11.7 µM) | > 16 µg/mL | 4 µg/mL (≈ 11.7 µM) | 0.25 µg/mL (≈ 0.734 µM) | 1 µg/mL (≈ 2.94 µM) | 4 µg/mL (≈ 11.7 µM) | 4 µg/mL (≈ 11.7 µM) | 16 µg/mL (≈ 47 µM) | > 16 µg/mL | 8 µg/mL (≈ 23.5 µM) | 4 µg/mL (≈ 11.7 µM)
5 | CCCC[C@H](CN(O)C=O)C(=O)N1CCC[C@H]1c1nnc(-c2ccccc2)s1 | 2 µg/mL (≈ 4.97 µM) | > 16 µg/mL | 4 µg/mL (≈ 9.94 µM) | 4 µg/mL (≈ 9.94 µM) | 2 µg/mL (≈ 4.97 µM) | 8 µg/mL (≈ 19.9 µM) | 8 µg/mL (≈ 19.9 µM) | > 16 µg/mL | > 16 µg/mL | > 16 µg/mL | 4 µg/mL (≈ 9.94 µM)
6 | CCCC[C@H](CN(O)C=O)C(=O)N1CCC[C@H]1c1nnc(-c2ccc(Br)cc2)s1 | 0.5 µg/mL (≈ 1.04 µM) | > 16 µg/mL | 0.5 µg/mL (≈ 1.04 µM) | 1 µg/mL (≈ 2.08 µM) | 0.5 µg/mL (≈ 1.04 µM) | 1 µg/mL (≈ 2.08 µM) | 1 µg/mL (≈ 2.08 µM) | > 16 µg/mL | > 16 µg/mL | 16 µg/mL (≈ 33.2 µM) | 0.5 µg/mL (≈ 1.04 µM)
7 | CCCC[C@H](CN(O)C=O)C(=O)N1CCC[C@H]1c1nnc(-c2ccc(C(F)(F)F)cc2F)s1 | 2 µg/mL (≈ 4.09 µM) | > 16 µg/mL | 2 µg/mL (≈ 4.09 µM) | 4 µg/mL (≈ 8.19 µM) | 0.25 µg/mL (≈ 0.512 µM) | 1 µg/mL (≈ 2.05 µM) | 2 µg/mL (≈ 4.09 µM) | > 16 µg/mL | > 16 µg/mL | > 16 µg/mL | 1 µg/mL (≈ 2.05 µM)
8 | CCCC[C@H](CN(O)C=O)C(=O)N1CCC[C@H]1c1nnc(-c2ccc(F)cc2C(F)(F)F)s1 | 2 µg/mL (≈ 4.09 µM) | > 16 µg/mL | 2 µg/mL (≈ 4.09 µM) | 4 µg/mL (≈ 8.19 µM) | 0.5 µg/mL (≈ 1.02 µM) | 4 µg/mL (≈ 8.19 µM) | 2 µg/mL (≈ 4.09 µM) | > 16 µg/mL | > 16 µg/mL | > 16 µg/mL | 2 µg/mL (≈ 4.09 µM)
9 | CCCC[C@H](CN(O)C=O)C(=O)N1CCC[C@H]1c1nnc(C2CCOC2)s1 (stereo partly drawn) | 4 µg/mL (≈ 10.1 µM) | > 16 µg/mL | 4 µg/mL (≈ 10.1 µM) | 4 µg/mL (≈ 10.1 µM) | 1 µg/mL (≈ 2.52 µM) | 4 µg/mL (≈ 10.1 µM) | 4 µg/mL (≈ 10.1 µM) | > 16 µg/mL | > 16 µg/mL | > 16 µg/mL | 1 µg/mL (≈ 2.52 µM)
10 | CCCC[C@H](CN(O)C=O)C(=O)N1CCC[C@H]1c1nnc(-c2sccc2C)s1 | 0.5 µg/mL (≈ 1.18 µM) | 16 µg/mL (≈ 37.9 µM) | 0.5 µg/mL (≈ 1.18 µM) | 0.5 µg/mL (≈ 1.18 µM) | 0.25 µg/mL (≈ 0.592 µM) | 0.5 µg/mL (≈ 1.18 µM) | 0.5 µg/mL (≈ 1.18 µM) | 64 µg/mL (≈ 151 µM) | 32 µg/mL (≈ 75.7 µM) | 16 µg/mL (≈ 37.9 µM) | 0.25 µg/mL (≈ 0.592 µM)
11 | CCCC[C@H](CN(O)C=O)C(=O)N1CCC[C@H]1c1nnc(-c2c(F)cccc2[N+](=O)[O-])s1 | 2 µg/mL (≈ 4.3 µM) | > 16 µg/mL | 2 µg/mL (≈ 4.3 µM) | 4 µg/mL (≈ 8.59 µM) | 1 µg/mL (≈ 2.15 µM) | 2 µg/mL (≈ 4.3 µM) | 2 µg/mL (≈ 4.3 µM) | > 16 µg/mL | > 16 µg/mL | > 16 µg/mL | 2 µg/mL (≈ 4.3 µM)
12 | CCCC[C@H](CN(O)C=O)C(=O)N1CCC[C@H]1c1nnc(-c2ccc(-c3ccccc3)cc2)s1 | 2 µg/mL (≈ 4.18 µM) | > 16 µg/mL | 2 µg/mL (≈ 4.18 µM) | > 16 µg/mL | 1 µg/mL (≈ 2.09 µM) | 2 µg/mL (≈ 4.18 µM) | 2 µg/mL (≈ 4.18 µM) | > 16 µg/mL | > 16 µg/mL | > 16 µg/mL | 1 µg/mL (≈ 2.09 µM)
13 | CCCC[C@H](CN(O)C=O)C(=O)N1CCC[C@H]1c1nnc(-c2ccc3[nH]ccc3c2)s1 | 4 µg/mL (≈ 9.06 µM) | > 16 µg/mL | 8 µg/mL (≈ 18.1 µM) | 16 µg/mL (≈ 36.2 µM) | 4 µg/mL (≈ 9.06 µM) | 8 µg/mL (≈ 18.1 µM) | 4 µg/mL (≈ 9.06 µM) | > 16 µg/mL | > 16 µg/mL | > 16 µg/mL | 4 µg/mL (≈ 9.06 µM)

— ChEMBL document CHEMBL6121016, “Design, Synthesis, and Biological Evaluation of 1,3,4-Thiadiazole Derivatives as Novel Potent Peptide Deformylase Inhibitors for Combating Drug-Resistant Gram-Positive and -Negative Bacteria” (J Med Chem, 2025)
